Reference: paper doi:10.1101/2023.03.24.534094v2 (biorxiv, 2023)
Like-named read-outs stand apart in the source and are kept apart here.

Experiments:
Assay in all cases: biochemical
JNK3 = JNK3 (Homo sapiens, UniProt P53779)
STLK3 = STLK3 (Homo sapiens, UniProt Q9UEW8)
PHKG2 = target: T1, PHKG2 (Homo sapiens, UniProt P15735)
T1 sequence (P15735 1-406): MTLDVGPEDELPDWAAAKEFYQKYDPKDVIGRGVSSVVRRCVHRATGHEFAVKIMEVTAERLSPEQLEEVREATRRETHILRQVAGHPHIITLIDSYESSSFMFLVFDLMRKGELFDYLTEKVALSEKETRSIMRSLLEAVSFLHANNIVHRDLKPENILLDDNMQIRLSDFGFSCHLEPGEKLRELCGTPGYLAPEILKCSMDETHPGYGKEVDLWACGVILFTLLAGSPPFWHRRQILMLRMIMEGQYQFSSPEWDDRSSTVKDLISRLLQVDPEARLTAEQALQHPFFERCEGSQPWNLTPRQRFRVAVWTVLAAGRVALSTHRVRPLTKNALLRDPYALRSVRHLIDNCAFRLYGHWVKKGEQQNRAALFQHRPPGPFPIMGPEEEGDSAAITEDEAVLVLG

CaMK1g = CaMK1g (Homo sapiens, UniProt Q96NX5)
Sequence of CaMK1g (Q96NX5 whole entry): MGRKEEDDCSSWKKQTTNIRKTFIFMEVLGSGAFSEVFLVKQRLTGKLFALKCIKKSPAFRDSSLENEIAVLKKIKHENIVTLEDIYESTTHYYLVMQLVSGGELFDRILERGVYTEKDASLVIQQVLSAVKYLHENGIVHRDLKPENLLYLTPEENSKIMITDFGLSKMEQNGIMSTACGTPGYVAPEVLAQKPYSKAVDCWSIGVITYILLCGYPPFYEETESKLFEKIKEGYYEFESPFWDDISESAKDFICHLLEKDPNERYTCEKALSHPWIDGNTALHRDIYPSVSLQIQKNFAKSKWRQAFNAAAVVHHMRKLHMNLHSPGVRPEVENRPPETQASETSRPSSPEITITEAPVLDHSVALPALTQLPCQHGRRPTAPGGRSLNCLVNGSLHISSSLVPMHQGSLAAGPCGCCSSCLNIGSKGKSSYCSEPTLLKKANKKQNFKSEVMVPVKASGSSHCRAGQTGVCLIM

NEK7 = NEK7 (Homo sapiens, UniProt Q8TDX7)
Sequence of NEK7 (Q8TDX7 whole entry): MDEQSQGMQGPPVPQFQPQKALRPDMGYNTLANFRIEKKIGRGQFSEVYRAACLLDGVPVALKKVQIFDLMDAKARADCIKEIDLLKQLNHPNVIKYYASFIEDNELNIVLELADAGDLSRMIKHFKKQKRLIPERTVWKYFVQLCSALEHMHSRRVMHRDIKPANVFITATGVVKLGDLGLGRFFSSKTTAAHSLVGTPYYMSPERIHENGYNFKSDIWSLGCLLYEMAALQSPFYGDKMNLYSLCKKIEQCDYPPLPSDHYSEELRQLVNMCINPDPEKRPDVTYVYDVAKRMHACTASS

BMX = target: T2, BMX (Homo sapiens, UniProt P51813)
T2 sequence (P51813 1-675): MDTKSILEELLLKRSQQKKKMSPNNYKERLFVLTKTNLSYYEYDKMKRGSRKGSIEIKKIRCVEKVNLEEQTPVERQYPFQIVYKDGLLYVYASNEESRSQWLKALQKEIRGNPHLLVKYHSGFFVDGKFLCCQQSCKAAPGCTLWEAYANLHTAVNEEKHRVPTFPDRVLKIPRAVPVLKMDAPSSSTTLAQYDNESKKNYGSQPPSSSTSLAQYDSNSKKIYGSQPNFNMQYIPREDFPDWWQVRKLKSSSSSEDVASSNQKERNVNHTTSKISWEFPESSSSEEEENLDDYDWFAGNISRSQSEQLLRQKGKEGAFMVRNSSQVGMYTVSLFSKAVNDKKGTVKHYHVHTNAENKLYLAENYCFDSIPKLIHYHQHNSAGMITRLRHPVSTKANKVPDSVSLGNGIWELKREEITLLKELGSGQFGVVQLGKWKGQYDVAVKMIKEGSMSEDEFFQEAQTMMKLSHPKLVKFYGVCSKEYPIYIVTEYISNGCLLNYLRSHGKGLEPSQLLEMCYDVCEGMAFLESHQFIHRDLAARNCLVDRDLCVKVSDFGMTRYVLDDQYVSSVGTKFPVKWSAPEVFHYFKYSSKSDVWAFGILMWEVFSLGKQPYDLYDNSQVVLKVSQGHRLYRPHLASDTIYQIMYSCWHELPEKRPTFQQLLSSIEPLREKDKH

DYRK1A = DYRK1A (Homo sapiens, UniProt Q13627)
TAF1 = TAF1 (Homo sapiens, UniProt P21675)
Sequence of TAF1 (P21675 whole entry): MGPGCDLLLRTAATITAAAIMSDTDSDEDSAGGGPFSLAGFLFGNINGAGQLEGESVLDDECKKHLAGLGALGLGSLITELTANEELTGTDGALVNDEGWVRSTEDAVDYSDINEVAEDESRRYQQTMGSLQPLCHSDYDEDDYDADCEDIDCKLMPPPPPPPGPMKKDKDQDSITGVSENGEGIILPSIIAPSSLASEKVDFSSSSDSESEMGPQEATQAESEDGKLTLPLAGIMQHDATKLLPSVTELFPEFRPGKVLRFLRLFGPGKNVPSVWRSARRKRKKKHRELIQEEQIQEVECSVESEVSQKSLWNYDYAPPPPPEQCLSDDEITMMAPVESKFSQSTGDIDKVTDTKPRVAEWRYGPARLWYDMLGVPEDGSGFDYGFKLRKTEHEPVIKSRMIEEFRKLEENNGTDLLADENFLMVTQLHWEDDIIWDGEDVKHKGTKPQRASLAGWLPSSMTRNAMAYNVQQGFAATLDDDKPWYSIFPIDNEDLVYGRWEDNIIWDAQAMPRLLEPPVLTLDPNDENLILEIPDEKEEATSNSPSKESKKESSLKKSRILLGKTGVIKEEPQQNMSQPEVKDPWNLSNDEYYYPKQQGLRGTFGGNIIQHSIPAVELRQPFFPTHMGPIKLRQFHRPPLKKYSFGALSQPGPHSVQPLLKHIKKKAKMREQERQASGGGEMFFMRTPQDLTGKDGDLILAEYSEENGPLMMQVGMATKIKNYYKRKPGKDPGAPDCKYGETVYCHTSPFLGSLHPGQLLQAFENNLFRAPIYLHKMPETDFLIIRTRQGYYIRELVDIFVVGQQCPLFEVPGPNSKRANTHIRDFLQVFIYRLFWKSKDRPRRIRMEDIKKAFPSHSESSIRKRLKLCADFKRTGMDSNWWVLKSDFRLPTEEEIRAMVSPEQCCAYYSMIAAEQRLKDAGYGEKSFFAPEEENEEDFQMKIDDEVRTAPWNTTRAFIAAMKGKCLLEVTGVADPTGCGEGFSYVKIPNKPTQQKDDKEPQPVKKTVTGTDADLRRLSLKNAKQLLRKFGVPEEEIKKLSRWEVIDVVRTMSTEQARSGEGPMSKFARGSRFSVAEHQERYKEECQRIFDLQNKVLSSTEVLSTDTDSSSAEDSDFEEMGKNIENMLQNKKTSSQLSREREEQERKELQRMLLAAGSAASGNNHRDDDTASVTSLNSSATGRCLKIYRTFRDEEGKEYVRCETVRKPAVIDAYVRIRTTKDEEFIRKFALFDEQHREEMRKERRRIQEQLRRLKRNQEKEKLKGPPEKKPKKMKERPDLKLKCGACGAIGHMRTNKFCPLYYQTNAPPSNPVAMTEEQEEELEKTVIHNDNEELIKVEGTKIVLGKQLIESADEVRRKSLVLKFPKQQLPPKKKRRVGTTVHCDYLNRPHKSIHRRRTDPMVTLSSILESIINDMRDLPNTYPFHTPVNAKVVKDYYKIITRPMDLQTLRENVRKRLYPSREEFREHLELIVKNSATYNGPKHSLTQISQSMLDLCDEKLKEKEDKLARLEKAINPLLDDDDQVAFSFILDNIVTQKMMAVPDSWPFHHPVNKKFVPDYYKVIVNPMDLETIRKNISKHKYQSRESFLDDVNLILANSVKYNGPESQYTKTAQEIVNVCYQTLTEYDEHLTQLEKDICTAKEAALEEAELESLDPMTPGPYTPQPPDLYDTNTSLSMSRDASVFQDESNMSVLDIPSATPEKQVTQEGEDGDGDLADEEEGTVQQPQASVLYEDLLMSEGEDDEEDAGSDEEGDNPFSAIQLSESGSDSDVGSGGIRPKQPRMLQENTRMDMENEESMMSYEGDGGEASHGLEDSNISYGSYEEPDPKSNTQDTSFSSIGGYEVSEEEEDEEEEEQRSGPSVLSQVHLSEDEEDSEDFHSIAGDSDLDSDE

ULK3 = target: T3, ULK3 (Homo sapiens, UniProt Q6PHR2)
T3 sequence (Q6PHR2 1-472): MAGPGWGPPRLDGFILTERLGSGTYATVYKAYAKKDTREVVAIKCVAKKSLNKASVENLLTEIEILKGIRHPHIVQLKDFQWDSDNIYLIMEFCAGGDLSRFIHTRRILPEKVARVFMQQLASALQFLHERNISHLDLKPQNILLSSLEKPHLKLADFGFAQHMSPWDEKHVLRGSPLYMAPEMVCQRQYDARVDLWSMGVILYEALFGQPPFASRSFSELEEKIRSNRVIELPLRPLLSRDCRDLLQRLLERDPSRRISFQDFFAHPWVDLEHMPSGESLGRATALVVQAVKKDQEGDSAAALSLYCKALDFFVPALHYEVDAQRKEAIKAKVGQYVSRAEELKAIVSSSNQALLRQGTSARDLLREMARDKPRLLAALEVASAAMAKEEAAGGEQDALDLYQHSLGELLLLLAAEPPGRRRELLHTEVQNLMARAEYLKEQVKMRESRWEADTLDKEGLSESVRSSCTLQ

Sequence of JNK3 (P53779 whole entry): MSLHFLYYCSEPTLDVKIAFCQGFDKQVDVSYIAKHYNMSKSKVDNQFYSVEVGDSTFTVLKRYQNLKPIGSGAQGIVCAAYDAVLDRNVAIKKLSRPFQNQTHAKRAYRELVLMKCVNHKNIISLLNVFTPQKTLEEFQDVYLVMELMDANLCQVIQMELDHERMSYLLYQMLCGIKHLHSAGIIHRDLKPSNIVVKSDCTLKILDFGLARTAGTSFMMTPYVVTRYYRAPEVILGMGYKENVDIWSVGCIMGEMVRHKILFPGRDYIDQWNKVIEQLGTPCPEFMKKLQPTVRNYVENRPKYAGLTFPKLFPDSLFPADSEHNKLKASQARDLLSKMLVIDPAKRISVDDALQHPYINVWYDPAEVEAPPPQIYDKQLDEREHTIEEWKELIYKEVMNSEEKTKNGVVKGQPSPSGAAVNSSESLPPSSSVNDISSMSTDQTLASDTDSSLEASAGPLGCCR

A ΔTm at 10 µM (JNK3; read-out: dTm 6) of 1.1 °C, a ΔTm at 10 µM (STLK3; read-out: dTm 6) of 0.2 °C and a ΔTm at 10 µM (PHKG2; read-out: dTm 6) of 0.8 °C were found for `CNc1ncc2cc(-c3cc(Br)ccc3Cl)c(=O)n(CCCCN)c2n1` [compound 6, 8-(4-Aminobutyl)-6-(5-bromo-2-chlorophenyl)-2-(methylamino)pyrido[2,3-d]pyrimidin-7(8H)-one] in this work. For the same compound, the ΔTm at 10 µM (CaMK1g; read-out: dTm 6) was 1.2 °C, the ΔTm at 10 µM (NEK7; read-out: dTm 6) was -1 °C and the ΔTm at 10 µM (BMX; read-out: dTm 6) was 3.8 °C. It also gave a ΔTm at 10 µM (DYRK1A; read-out: dTm 6) of 0 °C and a ΔTm at 10 µM (TAF1; read-out: dTm 6) of -0.6 °C.
A ΔTm at 10 µM (STLK3; read-out: dTm MR22 (5)) of 2.1 °C, a ΔTm at 10 µM (PHKG2; read-out: dTm MR22 (5)) of 1.4 °C and a ΔTm at 10 µM (CaMK1g; read-out: dTm MR22 (5)) of -0.4 °C were found for `CNc1ncc2cc(-c3cc(F)ccc3F)c(=O)n(CCCCN)c2n1` [compound 5, 8-(4-Aminobutyl)-6-(2,5-difluorophenyl)-2-(methylamino)pyrido[2,3-d]pyrimidin-7(8H)-one] in this work. For the same compound, the ΔTm at 10 µM (NEK7; read-out: dTm MR22 (5)) was -1.3 °C, the ΔTm at 10 µM (BMX; read-out: dTm MR22 (5)) was 1.9 °C and the ΔTm at 10 µM (DYRK1A; read-out: dTm MR22 (5)) was 0 °C. It also gave a ΔTm at 10 µM (ULK3; read-out: dTm MR22 (5)) of 1.9 °C and a ΔTm at 10 µM (TAF1; read-out: dTm MR22 (5)) of 0.2 °C.
With `CNc1ncc2cc(-c3ccc(-c4cccc(C)n4)cc3Cl)c(=O)n(CC3OCC(N)CO3)c2n1` (stereo not drawn) [compound 2, G-5555] the “dTm G-5555 (2)” value (JNK3; 10 µM, binder) was 1.8 °C, the “dTm G-5555 (2)” value (STLK3; 10 µM, binder) was 0.6 °C and the “dTm G-5555 (2)” value (PHKG2; 10 µM, binder) was 0.6 °C. For the same compound, the “dTm G-5555 (2)” value (CaMK1g; 10 µM, binder) was 2.3 °C, the “dTm G-5555 (2)” value (NEK7; 10 µM, binder) was 0.1 °C and the “dTm G-5555 (2)” value (BMX; 10 µM, binder) was 1.3 °C. The “dTm G-5555 (2)” value (DYRK1A; 10 µM, binder) was -1.0 °C and the “dTm G-5555 (2)” value (ULK3; 10 µM, binder) was 8.0 °C.
A ΔTm at 10 µM (JNK3; read-out: dTm MR21 (4)) of 2.7 °C, a ΔTm at 10 µM (STLK3; read-out: dTm MR21 (4)) of -1.1 °C and a ΔTm at 10 µM (PHKG2; read-out: dTm MR21 (4)) of 0.3 °C were found for `CNc1ncc2cc(-c3ccccc3Cl)c(=O)n(CCCCN)c2n1` [compound 4, 8-(4-Aminobutyl)-6-(2-chlorophenyl)-2-(methylamino)pyrido[2,3-d]pyrimidin-7(8H)-one] in this work. The ΔTm at 10 µM (CaMK1g; read-out: dTm MR21 (4)) was -0.1 °C, the ΔTm at 10 µM (NEK7; read-out: dTm MR21 (4)) was 0.1 °C and the ΔTm at 10 µM (BMX; read-out: dTm MR21 (4)) was 3.3 °C. It also gave a ΔTm at 10 µM (DYRK1A; read-out: dTm MR21 (4)) of 1.4 °C, a ΔTm at 10 µM (ULK3; read-out: dTm MR21 (4)) of 2.4 °C and a ΔTm at 10 µM (TAF1; read-out: dTm MR21 (4)) of -0.1 °C.
A ΔTm at 10 µM (JNK3; read-out: dTm 7) of 0.5 °C, a ΔTm at 10 µM (STLK3; read-out: dTm 7) of 0 °C and a ΔTm at 10 µM (PHKG2; read-out: dTm 7) of 0.3 °C were found for `CNc1ncc2cc(-c3cc(Br)ccc3Cl)c(=O)n(C[C@H]3OC[C@H](N)CO3)c2n1` [compound 7, 8-(((2r,5r)-5-Amino-1,3-dioxan-2-yl)methyl)-6-(5-bromo-2-chlorophenyl)-2-(methylamino)pyrido[2,3-d]pyrimidin-7(8H)-one] in this work. For the same compound, the ΔTm at 10 µM (CaMK1g; read-out: dTm 7) was 0.3 °C, the ΔTm at 10 µM (NEK7; read-out: dTm 7) was -0.2 °C and the ΔTm at 10 µM (BMX; read-out: dTm 7) was 3.2 °C. The ΔTm at 10 µM (DYRK1A; read-out: dTm 7) was -0.6 °C, the ΔTm at 10 µM (ULK3; read-out: dTm 7) was 0.6 °C and the ΔTm at 10 µM (TAF1; read-out: dTm 7) was -0.8 °C.
